# Results reported in patent US5002969A, “Pharmaceutical compositions containing titanocene complexes and use of these complexes as cytostatic agents” (priority 1985, dated 1991).
# Columns and labels:
# Ehrlich ascites tumor = assay: Activity against Ehrlich Ascites Tumor; format: in vivo, Female CF1 mice; conditions: single i.p. dose, 24 h after tumor inoculation
# Procedure: Female CF1 mice are each given about 6×10^6 Ehrlich ascites tumor cells by means of intraperitoneal injection and, 24 hours later, a single intraperitoneal dose of substance dose range of 20 to 500 mg/kg) in physiological saline solution (0.4 ml). In each case 5 to 10 animals are tested per dose. If appropriate, the preparation can be buffered to a pH of 4 to 7, for example with sodium bicarbonate or tris-(hydroxymethyl)-aminomethane, in order to avoid local irritation at the injection site. A group of untreated control animals which were injected intraperitoneally with 0.4 ml of physiological saline solution without administration of the substance is also run for each test series.
# The tumor development in the individual dose ranges is evaluated by means of the weight course and survival time. The dose-dependent number of tumor deaths, toxicity deaths and surviving, and the associated percentage increase in the average survival time are determined for each substance.
# Colon 38 Carcinoma = assay: Activity against Colon 38 Carcinoma; format: in vivo, female B6 D2 F1 mice; conditions: day 15
# Procedure: (§1) The B16 melanoma and colon 38 carcinoma used were obtained from the NCI Liasion Office, Institut Jules Bordet, Brussels, Belgium and, for propagation, were kept as solid, subcutaneously growing tumor lines on male C57BL/6J mice. For testing, the tumors were transplanted to female B6 D2 F1 mice. All animals were kept under standard conditions (22°-23° C., tap water and altromin food ad libitum, 12-h light-dark rhythm).
# (§2) For tumor transplantation on day 0 of the testing experiments, solid tumors were removed from donor mice, minced with scissors and reduced to small particles. After suspension in twofold volumes of Hank's balanced salt solution, volumes of 0.3 ml were inoculated subcutaneously into the axillary region, resulting in the growth of solitary solid tumors.
# (§3) The test compounds were administered either as a single injection on day 1 or as three injections on days 1, 3 and 5, or as five injections on days 1, 3, 5, 7 and 9. The different doses applied and the animal distribution are recorded in table 4. The substances, dissolved or suspended in a DMSO-saline mixture (1/9=v/v), were always injected intraperitoneally. The concentrations were selected in such a manner that each mouse received a total volume of 0.4 to 0.5 ml. Control animals only obtained one, three or five injections of the DMSO-saline mixture (0.5 ml/animal) without drug addition.
# (§4) The number of deaths was recorded daily. Deaths occuring within 7 days (single injection), 11 days (three injections) or 15 days (five injections) after tumor transplantation were defined as deaths due to substance toxicity.
# (§5) In the case of B16 melonoma, the tumors were removed and weighed on day 10 for the single and three injections or on day 15 for the five injections. Colon 38 carcinomas were always evaluated on day 15 of the experiment.
# B16 Melanoma = assay: Activity against B16 Melanoma; format: in vivo, female B6 D2 F1 mice; conditions: day 10
# Procedure: as §1, §2, §3, §4, §5
# solid Sarcoma 180 = assay: Activity against solid Sarcoma 180; conditions: for T/C / Tumor Weight: day 9; for Tumor Weight: mean ± SD
# Procedure: The sarcoma 180 used in the present study was obtained from the Deutsche Krebsforschungszentrum (Heidelberg, Germany). It was propagated as an intraperitoneally growing tumor line on female NMRI mice which were kept under standard conditions (altromin food and tap water ad libitum, 12-h dark-light rhythm).
# Antitumor testing was performed against sarcoma 180 in fluid ascitic as well as in solid, subcutaneously growing form. For testing against ascitic or solid sarcoma 180, the ascitic tumor of donor mice was harvested, diluted 1:3 (v:v) with saline and injected either into the peritoneal cavity or, subcutaneously, into the axillary region of female NMRI mice. Each animal obtained about 10^7 tumor cells. The day of tumor transplantation was defined as day 0 of the experiment.
# Before administration of the test compounds, samples corresponding to the applied doses were dissolved in DMSO, filled up with ninefold volumes of saline and applied to mice in volumes of 0.02 ml per g of body weight. The different doses were either given as a single injection on day 1 or as triple injections on days 1, 3 and 5. […] The untreated, tumor-bearing control animals only received injections of the DMSO/saline mixture (0.02 ml/g). Every day occuring deaths were noted. Deaths within 8 days after tumor transplantation were defined as toxic deaths due to substance toxicity. In the case of ascitic sarcoma 180, the parameters evaluated were the values of mean survival time (MST) and of increase in life span (ILS); the latter was calculated by relating the mean survival time of a treated group to that of the corresponding control group expressed as a percentage and by subtracting 100%. The key date for the evaluation of the experiment and for determining the number of surviving (cured) animals was day 80. In the case of solid sarcoma 180, the tumors were removed on day 9 after transplantation and weighted to an accuracy of ±1 mg. From tumor weights of treated and control animals, the T/C ratios were calculated as follows: [formula]
# ascitic Sarcoma 180 = assay: Activity against ascitic Sarcoma 180; format: in vivo, female NMRI mice; conditions: for Survivors/Animals Treated: day 80; for MST (mean survival time): mean (range)
# Excerpt: Each animal obtained about 10^7 tumor cells.
# Every day occuring deaths were noted.
# [1] = test system: Lung Small Cell Carcinoma; assay: Activity against heterotransplanted human small cell lung carcinoma; format: in vivo; conditions: day 41
# Procedure: (§6) The same testing procedure as in the tests with B16 melanoma and colon 38 carcinoma was employed. The test compounds were applied in equivalent and equitoxic doses, subdivided into five injections. The first injection was administered on day 8 (mammary carcinoma), day 10 (adenocarcinoma of rectum and lung) and day 26 (small cell lung carcinoma) of the tumor transplantation. The T/C values were determined 3 days after the last substance injection, i.e., on day 23 (mammary carcinoma), day 25 (adenocarcinoma of rectum and lung) and day 41 (small cell lung carcinoma).
# Lung Adenocarcinoma = assay: Activity against heterotransplanted human lung adenocarcinoma; format: in vivo; conditions: day 25
# Procedure: as §6
# Rectum Adenocarcinoma = assay: Activity against heterotransplanted human rectum adenocarcinoma; format: in vivo; conditions: day 25
# Procedure: as §6
# Mammary Carcinoma = assay: Activity against heterotransplanted human mammary carcinoma; format: in vivo, human tumor xenograft tumor xenograft tumor xenograft; conditions: day 23
# Procedure: as §6
molecule,measurement,setting,value
"Cl.Cl.Nc1ccc([S][Ti]([S]c2ccc(N)cc2)([CH]2C=CC=C2)[CH]2C=CC=C2)cc1 [Compound 1, Bis(p-aminothiophenolato)bis(.eta.^5 -cyclopentadienyl)titanium(IV)-dihydrochloride]",Optimal Treating Rate,Ehrlich ascites tumor,100%
same,Therapeutic Index (LD50/ED90),Ehrlich ascites tumor,"4,3"
same,T/C,Colon 38 Carcinoma; 1 × 100 mg/kg i.p.,61%
same,T/C,Colon 38 Carcinoma; 3 × 60 mg/kg i.p.,38%
same,T/C,B16 Melanoma; 1 × 100 mg/kg i.p.,80%
same,T/C,B16 Melanoma; 3 × 60 mg/kg i.p.,36%
same,T/C,solid Sarcoma 180; 1 × 60 mg/kg,109%
same,Tumor Weight,solid Sarcoma 180; 1 × 60 mg/kg,"1,30 ± 0,30 g"
same,T/C,solid Sarcoma 180; 1 × 100 mg/kg,86%
same,Tumor Weight,solid Sarcoma 180; 1 × 100 mg/kg,"1,03 ± 0,26 g"
same,T/C,solid Sarcoma 180; 3 × 60 mg/kg,39%
same,Tumor Weight,solid Sarcoma 180; 3 × 60 mg/kg,"0,47 ± 0,12 g"
same,ILS (increase in life span),ascitic Sarcoma 180; 1 × 60 mg/kg,15%
same,ILS (increase in life span),ascitic Sarcoma 180; 1 × 100 mg/kg,139%
same,Survivors/Animals Treated,ascitic Sarcoma 180; 1 × 100 mg/kg,1/5
same,MST (mean survival time),ascitic Sarcoma 180; 1 × 100 mg/kg,"39,4 (19-80) d"
"Cl.Nc1ccc([S][Ti]([Cl])([CH]2C=CC=C2)[CH]2C=CC=C2)cc1 [Compound 2, p-aminothiophenolato-chloro-bis(.eta.^5 -cyclopentadienyl)titanium(IV)-hydrochloride]",Optimal Treating Rate,Ehrlich ascites tumor,100%
same,Therapeutic Index (LD50/ED90),Ehrlich ascites tumor,"4,4"
"O=C(O)C=CC(=O)[O][Ti+2][O]C(=O)C=CC(=O)O.c1cc[cH-]c1.c1cc[cH-]c1 [Compound 3, Bis(hydrogenmaleinato)bis(.eta.^5 -cyclopentadienyl)titanium(IV)]",Optimal Treating Rate,Ehrlich ascites tumor,100%
same,Therapeutic Index (LD50/ED90),Ehrlich ascites tumor,"3,8"
same,T/C (based on mean relative volume of tumor),[1]; 5 × 30 mg/kg,65%
same,T/C,Colon 38 Carcinoma; 1 × 120 mg/kg i.p.,72%
same,T/C,Colon 38 Carcinoma; 3 × 100 mg/kg i.p.,50%
same,T/C (based on mean relative volume of tumor),Lung Adenocarcinoma; 5 × 30 mg/kg,35%
same,T/C (based on mean relative volume of tumor),Rectum Adenocarcinoma; 5 × 30 mg/kg,89%
same,T/C,B16 Melanoma; 1 × 120 mg/kg i.p.,89%
same,T/C,B16 Melanoma; 3 × 100 mg/kg i.p.,50%
same,T/C,solid Sarcoma 180; 1 × 80 mg/kg,95%
same,Tumor Weight,solid Sarcoma 180; 1 × 80 mg/kg,"1,13 ± 0,18 g"
same,T/C,solid Sarcoma 180; 1 × 120 mg/kg,73%
same,Tumor Weight,solid Sarcoma 180; 1 × 120 mg/kg,"0,87 ± 0,41 g"
same,T/C,solid Sarcoma 180; 3 × 60 mg/kg,76%
same,Tumor Weight,solid Sarcoma 180; 3 × 60 mg/kg,"0,91 ± 0,25 g"
same,T/C,solid Sarcoma 180; 3 × 100 mg/kg,53%
same,Tumor Weight,solid Sarcoma 180; 3 × 100 mg/kg,"0,63 ± 0,14 g"
same,ILS (increase in life span),ascitic Sarcoma 180; 1 × 80 mg/kg,95%
same,Survivors/Animals Treated,ascitic Sarcoma 180; 1 × 80 mg/kg,1/5
same,MST (mean survival time),ascitic Sarcoma 180; 1 × 80 mg/kg,"32,2 (15-80) d"
same,ILS (increase in life span),ascitic Sarcoma 180; 1 × 120 mg/kg,125%
same,Survivors/Animals Treated,ascitic Sarcoma 180; 1 × 120 mg/kg,1/5
same,MST (mean survival time),ascitic Sarcoma 180; 1 × 120 mg/kg,"37,2 (21-80) d"
same,T/C (based on mean relative volume of tumor),Mammary Carcinoma; 5 × 30 mg/kg,40%
"O=C([O][Ti+2][O]C(=O)C(Cl)(Cl)Cl)C(Cl)(Cl)Cl.c1cc[cH-]c1.c1cc[cH-]c1 [Compound 4, Bis(trichloroacetato)bis(.eta.^5 -cyclopentadienyl)titanium(IV)]",Optimal Treating Rate,Ehrlich ascites tumor,100%
same,Therapeutic Index (LD50/ED90),Ehrlich ascites tumor,"5,5"
same,T/C,Colon 38 Carcinoma; 1 × 320 mg/kg i.p.,48%
same,T/C,B16 Melanoma; 1 × 320 mg/kg i.p.,85%
same,T/C,B16 Melanoma; 3 × 300 mg/kg i.p.,41%
same,T/C,solid Sarcoma 180; 1 × 220 mg/kg,96%
same,Tumor Weight,solid Sarcoma 180; 1 × 220 mg/kg,"1,14 ± 0,26 g"
same,T/C,solid Sarcoma 180; 1 × 320 mg/kg,67%
same,Tumor Weight,solid Sarcoma 180; 1 × 320 mg/kg,"0,79 ± 0,28 g"
same,T/C,solid Sarcoma 180; 3 × 200 mg/kg,106%
same,Tumor Weight,solid Sarcoma 180; 3 × 200 mg/kg,"1,26 ± 0,30 g"
same,Toxicity Deaths/Animals Treated,solid Sarcoma 180; 3 × 300 mg/kg,1/5
same,T/C,solid Sarcoma 180; 3 × 300 mg/kg,37%
same,Tumor Weight,solid Sarcoma 180; 3 × 300 mg/kg,"0,44 ± 0,14 g"
same,ILS (increase in life span),ascitic Sarcoma 180; 1 × 220 mg/kg,4%
same,MST (mean survival time),ascitic Sarcoma 180; 1 × 220 mg/kg,"17,2 (15-20) d"
same,ILS (increase in life span),ascitic Sarcoma 180; 1 × 320 mg/kg,96%
same,Survivors/Animals Treated,ascitic Sarcoma 180; 1 × 320 mg/kg,1/5
same,MST (mean survival time),ascitic Sarcoma 180; 1 × 320 mg/kg,"32,4 (18-80) d"
Titanocene dibromide [reference compound],T/C (based on mean relative volume of tumor),[1]; 5 × 20 mg/kg,96%
same,T/C,Colon 38 Carcinoma; 1 × 60 mg/kg i.p.,36%
same,T/C,Colon 38 Carcinoma; 3 × 50 mg/kg i.p.,51%
same,T/C (based on mean relative volume of tumor),Lung Adenocarcinoma; 5 × 20 mg/kg,53%
same,T/C (based on mean relative volume of tumor),Rectum Adenocarcinoma; 5 × 20 mg/kg,48%
same,T/C,B16 Melanoma; 1 × 60 mg/kg i.p.,42%
same,T/C,B16 Melanoma; 3 × 50 mg/kg i.p.,48%
same,T/C,B16 Melanoma; 3 × 60 mg/kg i.p.,44%
same,T/C,solid Sarcoma 180; 1 × 50 mg/kg,108%
same,Tumor Weight,solid Sarcoma 180; 1 × 50 mg/kg,"1,27 ± 0,37 g"
same,T/C,solid Sarcoma 180; 1 × 60 mg/kg,94%
same,Tumor Weight,solid Sarcoma 180; 1 × 60 mg/kg,"1,21 ± 0,37 g"
same,T/C,solid Sarcoma 180; 3 × 50 mg/kg,53%
same,Tumor Weight,solid Sarcoma 180; 3 × 50 mg/kg,"0,69 ± 0,17 g"
same,Toxicity Deaths/Animals Treated,solid Sarcoma 180; 3 × 60 mg/kg,1/5
same,T/C,solid Sarcoma 180; 3 × 60 mg/kg,37%
same,Tumor Weight,solid Sarcoma 180; 3 × 60 mg/kg,"0,48 ± 0,10 g"
same,ILS (increase in life span),"ascitic Sarcoma 180; 1 × 50 mg/kg, group of 5",61%
same,MST (mean survival time),"ascitic Sarcoma 180; 1 × 50 mg/kg, group of 5","28,4 (22-34) d"
same,ILS (increase in life span),ascitic Sarcoma 180; 1 × 60 mg/kg,128%
same,Survivors/Animals Treated,ascitic Sarcoma 180; 1 × 60 mg/kg,1/5
same,MST (mean survival time),ascitic Sarcoma 180; 1 × 60 mg/kg,"40,2 (20-80) d"
same,T/C (based on mean relative volume of tumor),Mammary Carcinoma; 5 × 20 mg/kg,44%
titanocene dichloride [reference compound],Optimal Treating Rate,Ehrlich ascites tumor,90-100%
same,Therapeutic Index (LD50/ED90),Ehrlich ascites tumor,"3,3"
same,T/C (based on mean relative volume of tumor),[1]; 5 × 15 mg/kg,110%
same,T/C,Colon 38 Carcinoma; 1 × 50 mg/kg i.p.,41%
same,T/C,Colon 38 Carcinoma; 3 × 40 mg/kg i.p.,28%
same,T/C (based on mean relative volume of tumor),Lung Adenocarcinoma; 5 × 15 mg/kg,34%
same,T/C (based on mean relative volume of tumor),Rectum Adenocarcinoma; 5 × 15 mg/kg,38%
same,T/C,B16 Melanoma; 1 × 50 mg/kg i.p.,61%
same,T/C,B16 Melanoma; 3 × 40 mg/kg i.p.,69%
same,T/C,B16 Melanoma; 3 × 50 mg/kg i.p.,37%
same,T/C,solid Sarcoma 180; 1 × 40 mg/kg,111%
same,Tumor Weight,solid Sarcoma 180; 1 × 40 mg/kg,"1,31 ± 0,24 g"
same,T/C,solid Sarcoma 180; 1 × 50 mg/kg,66%
same,Tumor Weight,solid Sarcoma 180; 1 × 50 mg/kg,"0,78 ± 0,34 g"
same,T/C,solid Sarcoma 180; 3 × 40 mg/kg,58%
same,Tumor Weight,solid Sarcoma 180; 3 × 40 mg/kg,"0,75 ± 0,32 g"
same,T/C,solid Sarcoma 180; 3 × 50 mg/kg,23%
same,Tumor Weight,solid Sarcoma 180; 3 × 50 mg/kg,"0,29 ± 0,14 g"
same,ILS (increase in life span),"ascitic Sarcoma 180; 1 × 40 mg/kg, group of 5",81%
same,Survivors/Animals Treated,"ascitic Sarcoma 180; 1 × 40 mg/kg, group of 5",1/5
same,MST (mean survival time),"ascitic Sarcoma 180; 1 × 40 mg/kg, group of 5","32,0 (18-80) d"
same,ILS (increase in life span),"ascitic Sarcoma 180; 1 × 40 mg/kg, group of 6",32%
same,MST (mean survival time),"ascitic Sarcoma 180; 1 × 40 mg/kg, group of 6","27,3 (20-49) d"
same,ILS (increase in life span),"ascitic Sarcoma 180; 1 × 50 mg/kg, group of 5",184%
same,Survivors/Animals Treated,"ascitic Sarcoma 180; 1 × 50 mg/kg, group of 5",2/5
same,MST (mean survival time),"ascitic Sarcoma 180; 1 × 50 mg/kg, group of 5","50,0 (25-80) d"
same,ILS (increase in life span),"ascitic Sarcoma 180; 1 × 50 mg/kg, group of 6",161%
same,Survivors/Animals Treated,"ascitic Sarcoma 180; 1 × 50 mg/kg, group of 6",3/6
same,MST (mean survival time),"ascitic Sarcoma 180; 1 × 50 mg/kg, group of 6","54,0 (25-80) d"
same,T/C (based on mean relative volume of tumor),Mammary Carcinoma; 5 × 15 mg/kg,49%
